# Results published in paper PMC5415745, “Drug-transporter mediated interactions between anthelminthic and antiretroviral drugs across the Caco-2 cell monolayers” (BMC Pharmacology & Toxicology, 2017).
# Several values for one entry are separate records, joined by “and”; a condition that tells them apart may be missing. Equal values may be shown once.
# Columns and labels:
# Caco-2 cell monolayers = experiment: Bidirectional (AP→BL, BL→AP) drug transport across Caco-2 cell monolayers in transwells: cumulative transport, Papp, efflux ratio; HPLC or radiolabeled assay; details: for Basal to apical transport (cumulative, receiver): individual samples 1-3; for PappAB / PappBA: individual samples; for Apical to basal transport / Basal to apical transport: samples 1-3
# Description: (§1) The monolayers used were of between passage 20 and 65 after 15 days of growth. Each experiment was performed in duplicate using two six well-transwell culture plates. The cells were trypsinized as described earlier, and after centrifugation the pellet re-suspended in fresh DMEM (+15%), and the cells counted using a cell counter. A volume of DMEM was added enough to give a cell count of 2 × 10^6 cells per ml, and cells were seeded on the transwell culture plates at a density of 2 × 10^4 cells/cm^2 (~ 100,000 cells per well, since insert membrane growth area = 4.67 cm^2). The plates were then incubated at 37°C and 10% CO2 in a humidified chamber and the media changed every 2-3 days, by aspirating using a suction pump and replacing with an equal volume of DMEM. Transport experiments were conducted 15 to 20 days after seeding. The TEER across the cell monolayers was monitored using a Millicell-ERS in order to assess cell monolayer integrity and the monolayers considered appropriate for the experiment when the TEER values were typically above 500 cm^2 [49, 70].
# (§2) Prior to transport studies, each monolayer was washed and equilibrated with the transport medium (DMEM without FBS). The medium was removed from all AP and BL compartments of the transwells and replaced with 2 ml of the transport medium (DMEM alone), to both compartments and equilibrated for 1 h (37°C, 10% CO2 incubator), after which the TEER was re-assessed and labeled. The medium was then removed from both compartments and replaced with an equal volume of pre-warmed medium containing the compound of interest at the appropriate concentration. For the AP → BL transport, 2 ml of medium containing the desired drug was placed in the AP chamber and 2 ml of the medium alone in the BL chamber, whereas 2 ml of medium containing the drug was placed in the BL and 2 ml of medium on the AP chamber for the BL → AP transport [71]. The effect of the second drug was then assessed by adding the medium containing the original drug and the drug under study to the AP side for AP → BL transport with the medium containing the original drug alone in the BL chamber, and vice-versa for the BL → AP transport. Transport in each direction was done in triplicate. The transwell plates were then incubated (37°C, 10% CO2 incubator), and 100μl of the samples from the AP and BL compartments were taken at 60, 120, 180 and 240 min and quantified either by HPLC method described earlier [45], or by the use of a liquid scintillating counter depending on the drug under study. The HPLC method involved liquid - liquid extraction followed by ultra-high performance liquid chromatography using a Hypurity C18 column and ultraviolet detection set at a wavelength of 215 nm. The mobile phase consisted of ammonium formate, acetonitrile and methanol (57:38:5 v/v). Separation was facilitated via isocratic elution at a flow rate of 1.5 ml/min. For HPLC assays, the concentration used for each drug was 20μg/ml. The concentrations that offered the best detection were selected for radiolabeled assay. […] The integrity of the CCM during the experiment was monitored by measuring the TEER at the beginning (0 min) and the end of the experiment (240min).
# (§3) The results were expressed as apparent permeability coefficient (Papp, unit: cms^-1), the amount of compound transported per second. Papp values were calculated for both AP to BL (PappAtoB), and BL to AP (PappBtoA) movement of the compound. Papp was calculated using the following equation [52, 72]: • Papp (cm/s) = (dQ/dt) x (1/(ACO) • dQ/dt = Steady-state flux (dpm s^-1 or μmol s^-1) • A = Surface area of the filter (cm^2) • CO = Initial concentration in the donor chamber (dpm litre ^-1 or μM)
# (§4) The quotient of secretory permeability and absorptive permeability (PappBL-AP/PappAP-BL) constitutes the efflux ratio, while the reverse (PappAP-BL/PappBL-AP) is the uptake ratio [71].
# P-gp = details: CEM parental and CEMVBL cells; cited from earlier work
# in vitro = details: human, Mean
# Description: as §1, §2, §3, §4
# [1] = PZQ alone (EFV experiment), 60 min
# [2] = PZQ alone (EFV experiment), 120 min, mean
# [3] = PZQ alone (EFV experiment), 120 min
# [4] = PZQ alone (EFV experiment), 180 min, mean
# [5] = PZQ alone (EFV experiment), 180 min
# [6] = PZQ alone (EFV experiment), 240 min, mean
# [7] = PZQ alone (EFV experiment), 240 min
# [8] = PZQ alone (NVP experiment), 60 min, mean
# [9] = PZQ alone (NVP experiment), 60 min
# [10] = PZQ alone (NVP experiment), 120 min, mean
# [11] = PZQ alone (NVP experiment), 120 min
# [12] = PZQ alone (NVP experiment), 180 min, mean
# [13] = PZQ alone (NVP experiment), 180 min
# [14] = PZQ alone (NVP experiment), 240 min, mean
# [15] = PZQ alone (NVP experiment), 240 min
# [16] = PZQ alone (SQV experiment), 60 min, mean
# [17] = PZQ alone (SQV experiment), 60 min
# [18] = PZQ alone (SQV experiment), 120 min, mean
# [19] = PZQ alone (SQV experiment), 120 min
# [20] = PZQ alone (SQV experiment), 180 min, mean
# [21] = PZQ alone (SQV experiment), 180 min
# [22] = PZQ alone (SQV experiment), 240 min, mean
# [23] = PZQ alone (SQV experiment), 240 min
# [24] = PZQ alone (SQV experiment), after 60min
# [25] = PZQ alone (SQV experiment), after 60min, mean
# [26] = labelled drug is the interacting drug
structure (smiles),measurement,setting,value
"O=C(C1CCCCC1)N1CC(=O)N2CCc3ccccc3C2C1 (centres unmarked) [PZQ, praziquantel]","Basal to apical transport (cumulative, receiver)",Caco-2 cell monolayers; 60 min,16.40 pmol and 16.26 pmol and 17.14 pmol
same,"Apical to basal transport (cumulative, receiver), Mean","Caco-2 cell monolayers; 60 min, mean n=3",15.06 pmol
same,"Basal to apical transport (cumulative, receiver), Mean","Caco-2 cell monolayers; 60 min, mean n=3",16.60 pmol
same,PappAB,Caco-2 cell monolayers; 3600 sec,89.9 ×10⁻⁶ cm/s and 62.5 ×10⁻⁶ cm/s and 76.8 ×10⁻⁶ cm/s
same,PappBA,Caco-2 cell monolayers; 3600 sec,84.6 ×10⁻⁶ cm/s and 77.5 ×10⁻⁶ cm/s and 95.4 ×10⁻⁶ cm/s
same,PappAB Mean,"Caco-2 cell monolayers; 3600 sec, mean n=3",76.4 ×10⁻⁶ cm/s
same,PappBA Mean,"Caco-2 cell monolayers; 3600 sec, mean n=3",85.8 ×10⁻⁶ cm/s
same,"Basal to apical transport (cumulative, receiver)",Caco-2 cell monolayers; 120 min,20.68 pmol and 19.96 pmol and 21.78 pmol
same,"Apical to basal transport (cumulative, receiver), Mean","Caco-2 cell monolayers; 120 min, mean n=3",22.74 pmol
same,"Basal to apical transport (cumulative, receiver), Mean","Caco-2 cell monolayers; 120 min, mean n=3",20.81 pmol
same,PappAB,Caco-2 cell monolayers; 7200 sec,65.5 ×10⁻⁶ cm/s and 65.7 ×10⁻⁶ cm/s and 60.2 ×10⁻⁶ cm/s
same,PappBA,Caco-2 cell monolayers; 7200 sec,56.2 ×10⁻⁶ cm/s and 57.9 ×10⁻⁶ cm/s and 57.5 ×10⁻⁶ cm/s
same,"Basal to apical transport (cumulative, receiver)",Caco-2 cell monolayers; 180 min,26.18 pmol and 23.22 pmol
same,"Apical to basal transport (cumulative, receiver), Mean","Caco-2 cell monolayers; 180 min, mean n=3",27.30 pmol
same,"Basal to apical transport (cumulative, receiver), Mean","Caco-2 cell monolayers; 180 min, mean n=3",23.94 pmol
same,PappAB,Caco-2 cell monolayers; 10800 sec,58.3 ×10⁻⁶ cm/s and 51.6 ×10⁻⁶ cm/s and 63.2 ×10⁻⁶ cm/s
same,PappBA,Caco-2 cell monolayers; 10800 sec,56.6 ×10⁻⁶ cm/s and 41.1 ×10⁻⁶ cm/s and 46 ×10⁻⁶ cm/s
same,"Basal to apical transport (cumulative, receiver)",Caco-2 cell monolayers; 240 min,26.24 pmol and 28.48 pmol and 32.82 pmol
same,"Apical to basal transport (cumulative, receiver), Mean","Caco-2 cell monolayers; 240 min, mean n=3",32.95 pmol
same,"Basal to apical transport (cumulative, receiver), Mean","Caco-2 cell monolayers; 240 min, mean n=3",29.18 pmol
same,PappAB,Caco-2 cell monolayers; 14400 sec,54.4 ×10⁻⁶ cm/s and 52 ×10⁻⁶ cm/s and 55.5 ×10⁻⁶ cm/s
same,PappBA,Caco-2 cell monolayers; 14400 sec,50.1 ×10⁻⁶ cm/s and 43.3 ×10⁻⁶ cm/s and 55.4 ×10⁻⁶ cm/s
same,Basal to apical transport Mean,"Caco-2 cell monolayers; PZQ alone (EFV experiment), 60 min, mean",26.40 pmol
same,Apical to basal transport,Caco-2 cell monolayers; [1],33.50 pmol and 22.28 pmol and 39.18 pmol
same,Basal to apical transport,Caco-2 cell monolayers; [1],25.94 pmol and 27.98 pmol and 25.28 pmol
same,Apical to basal transport Mean,Caco-2 cell monolayers; [2],37.71 pmol
same,Basal to apical transport Mean,Caco-2 cell monolayers; [2],46.61 pmol
same,Apical to basal transport,Caco-2 cell monolayers; [3],45.74 pmol and 32.50 pmol and 34.88 pmol
same,Basal to apical transport,Caco-2 cell monolayers; [3],49.34 pmol and 35.84 pmol and 54.66 pmol
same,Apical to basal transport Mean,Caco-2 cell monolayers; [4],54.47 pmol
same,Basal to apical transport Mean,Caco-2 cell monolayers; [4],58.63 pmol
same,Apical to basal transport,Caco-2 cell monolayers; [5],46.84 pmol and 53.00 pmol and 63.58 pmol
same,Basal to apical transport,Caco-2 cell monolayers; [5],53.14 pmol and 51.00 pmol and 71.74 pmol
same,Apical to basal transport Mean,Caco-2 cell monolayers; [6],71.45 pmol
same,Basal to apical transport Mean,Caco-2 cell monolayers; [6],67.31 pmol
same,Apical to basal transport,Caco-2 cell monolayers; [7],50.62 pmol and 68.96 pmol and 94.76 pmol
same,Basal to apical transport,Caco-2 cell monolayers; [7],74.78 pmol and 75.20 pmol
same,Apical to basal transport Mean,Caco-2 cell monolayers; [8],23.43 pmol
same,Basal to apical transport Mean,Caco-2 cell monolayers; [8],25.07 pmol
same,Apical to basal transport,Caco-2 cell monolayers; [9],22.50 pmol and 22.28 pmol and 25.50 pmol
same,Basal to apical transport,Caco-2 cell monolayers; [9],23.94 pmol and 25.98 pmol and 25.28 pmol
same,Apical to basal transport Mean,Caco-2 cell monolayers; [10],39.93 pmol
same,Basal to apical transport Mean,Caco-2 cell monolayers; [10],49.95 pmol
same,Apical to basal transport,Caco-2 cell monolayers; [11],34.88 pmol and 39.18 pmol and 45.74 pmol
same,Basal to apical transport,Caco-2 cell monolayers; [11],49.34 pmol and 45.84 pmol and 54.66 pmol
same,Apical to basal transport Mean,Caco-2 cell monolayers; [12],50.15 pmol
same,Basal to apical transport Mean,Caco-2 cell monolayers; [12],54.69 pmol
same,Apical to basal transport,Caco-2 cell monolayers; [13],46.84 pmol and 53.00 pmol and 50.62 pmol
same,Basal to apical transport,Caco-2 cell monolayers; [13],53.14 pmol and 59.00 pmol
same,Apical to basal transport Mean,Caco-2 cell monolayers; [14],69.10 pmol
same,Basal to apical transport Mean,Caco-2 cell monolayers; [14],73.24 pmol
same,Apical to basal transport,Caco-2 cell monolayers; [15],63.58 pmol and 68.96 pmol and 74.76 pmol
same,Basal to apical transport,Caco-2 cell monolayers; [15],65.74 pmol and 78.78 pmol and 75.20 pmol
same,Apical to basal transport Mean,Caco-2 cell monolayers; [16],15.06 pmol
same,Basal to apical transport Mean,Caco-2 cell monolayers; [16],16.60 pmol
same,Apical to basal transport,Caco-2 cell monolayers; [17],16.68 pmol and 13.02 pmol and 15.48 pmol
same,Basal to apical transport,Caco-2 cell monolayers; [17],16.40 pmol and 16.26 pmol and 17.14 pmol
same,Apical to basal transport Mean,Caco-2 cell monolayers; [18],22.74 pmol
same,Basal to apical transport Mean,Caco-2 cell monolayers; [18],20.81 pmol
same,Apical to basal transport,Caco-2 cell monolayers; [19],22.40 pmol and 22.80 pmol and 23.02 pmol
same,Basal to apical transport,Caco-2 cell monolayers; [19],19.96 pmol and 21.78 pmol and 20.68 pmol
same,Apical to basal transport Mean,Caco-2 cell monolayers; [20],27.30 pmol
same,Basal to apical transport Mean,Caco-2 cell monolayers; [20],23.94 pmol
same,Apical to basal transport,Caco-2 cell monolayers; [21],28.02 pmol
same,Basal to apical transport,Caco-2 cell monolayers; [21],26.18 pmol and 23.22 pmol
same,Apical to basal transport Mean,Caco-2 cell monolayers; [22],32.95 pmol
same,Basal to apical transport Mean,Caco-2 cell monolayers; [22],29.18 pmol
same,Apical to basal transport,Caco-2 cell monolayers; [23],30.94 pmol and 32.48 pmol and 35.44 pmol
same,Basal to apical transport,Caco-2 cell monolayers; [23],26.24 pmol and 28.48 pmol and 32.82 pmol
same,PappAB,Caco-2 cell monolayers; [24],8.99 ×10⁻⁶ cm/s and 6.25 ×10⁻⁶ cm/s and 7.68 ×10⁻⁶ cm/s
same,PappBA,Caco-2 cell monolayers; [24],8.46 ×10⁻⁶ cm/s and 7.75 ×10⁻⁶ cm/s and 9.54 ×10⁻⁶ cm/s
same,PappAB Mean,Caco-2 cell monolayers; [25],7.64 ×10⁻⁶ cm/s
same,PappBA Mean,Caco-2 cell monolayers; [25],8.58 ×10⁻⁶ cm/s
same,PappAB,"Caco-2 cell monolayers; PZQ alone, MOESM4",89.9 ×10⁻⁶ cm/s and 62.5 ×10⁻⁶ cm/s and 76.8 ×10⁻⁶ cm/s
same,PappBA,"Caco-2 cell monolayers; PZQ alone, MOESM4",84.6 ×10⁻⁶ cm/s and 77.5 ×10⁻⁶ cm/s and 95.4 ×10⁻⁶ cm/s
same,ER Mean,"Caco-2 cell monolayers; PZQ alone, mean, MOESM4",1.14
same,PappAB Mean (x10^6),"Caco-2 cell monolayers; PZQ alone, mean, MOESM4",7.64 x10^6 cm/s
same,Effect on the (efflux) transport of SQV,Caco-2 cell monolayers; [26],did not alter
same,Effect on the transport of ARVs,Caco-2 cell monolayers; [26],did not appear to significantly influence
same,P-gp substrate / inhibitor status,P-gp,neither a substrate nor an inhibitor of P-gp
same,Papp A→B at 7200 sec,"in vitro; Caco-2, PappAB",63.8 ×10⁻⁶ cm/s
same,Papp A→B at 10800 sec,"in vitro; Caco-2, PappAB",57.7 ×10⁻⁶ cm/s
same,Papp A→B at 14400 sec,"in vitro; Caco-2, PappAB",53.9 ×10⁻⁶ cm/s
same,Papp B→A at 7200 sec,"in vitro; Caco-2, PappBA",57.2 ×10⁻⁶ cm/s
same,Papp B→A at 10800 sec,"in vitro; Caco-2, PappBA",47.9 ×10⁻⁶ cm/s
same,Papp B→A at 14400 sec,"in vitro; Caco-2, PappBA",49.6 ×10⁻⁶ cm/s
